{
  "source": "patent US7855211B2",
  "about": "“Protein kinase inhibitors” (Eli Lilly and Company, priority 2008, dated 2010)",
  "key": {"[1]": {"tested_on": "U87 MG human glioblastoma tumour cells", "experiment": "Orthotopic Brain Xenograft Model, NIH-RNU rats, survival", "format": "in vivo", "source_text": "Test compound is formulated in vehicle (1% w/v hydroxyethylcellulose/0.25% v/v polysorbate 80/0.05% v/v antifoam in purified water) and administered every day for 21 days at 20, 40 and 80 mpk (qdx21) and 80 mpk q2dx10 starting on day 4 after tumour implant.\nThe primary outcome variable is survival."}, "[2]": {"tested_on": "human acute myeloid leukaemia (AML) cells (MV4-11)", "experiment": "Human subcutaneous xenograft model, MV4-11, athymic nude mice", "format": "in vivo", "conditions": "for TGD Days (750 m3): oral gavage daily for 21 days", "method": "(§1) Test compound is prepared in an appropriate vehicle (1% hydroxyethyl cellulose, in 25 mM phosphate buffer pH 2) and is administered by oral gavage daily (at 25, 50 or 100 mg/kg (mpk)) for 21 days when tumours are established (11-29 days after implant). Tumour response is determined by tumour volume measurement performed twice a week during the course of treatment.\n(§2) The statistical method for assessing Tumour Growth Delay (TGD-Individual interpolation method) is as follows: For each animal, the time to reach a specified tumour volume (threshold) is calculated by interpolating between the last measurement before reaching the threshold and the next measurement. The interpolation is linear using log10(volume) vs. time. If an animal never reaches the threshold, its crossing time is reported at “>T” where T is the last day measured for that animal. These crossing times are analyzed as “time-to-event” data with right-censoring using a Weibull distribution. A mean and standard deviation are determined for each treatment group. Tumour growth delay (TGD) is the difference in mean crossing time between a treated group and the vehicle control group. T-tests are performed using the means and standard deviations from the Weibull analysis. Body weight is taken as a general measurement of toxicity."}, "[3]": {"tested_on": "human lung cancer cells (NCI H460)", "experiment": "Human subcutaneous xenograft model, NCI H460, athymic nude mice", "format": "in vivo", "conditions": "oral gavage daily for 21 days", "method": "as §1, §2"}, "[4]": {"experiment": "Plasma and brain exposure in non-tumour bearing male Sprague Dawley rats", "format": "in vivo, rat", "conditions": "male SD rats; for concentration at 2 h / concentration at 4 h / concentration at 24 h / concentration at 48 h: single oral dose 30 mg/kg", "method": "Samples are taken over 48 h in order to determine plasma and brain concentrations. Animals are sacrificed, and whole blood collected by cardiac puncture and plasma isolated by centrifugation. Whole brain is collected and snapped frozen in liquid nitrogen. […] An internal standard compound in acetonitrile/methanol (1:1, v/v) is added to samples of plasma or brain homogenate to precipitate protein and the samples are centrifuged prior to analysis. The supernatants are analysed by injection and rapid gradient elution on a Javelin Betasil C18 column (20×2.1 mm cartridge, Mobile phase A: […] The eluted analytes are detected by LC-MS-MS analysis using a Sciex API 4000 triple quadrupole mass spectrometer. Concentrations of compounds in plasma or brain are determined from standards prepared under identical conditions. The plasma and brain concentrations are determined in this study from a group of three rats at each time point (see Tables 6a and 6b) and are used to calculate the area under the plasma concentration/time curve or the brain concentration/time curve from 0 to 48 hours. […] Maximal concentrations (Tmax) are detected at 4 h."}, "[5]": {"tested_on": "Human colorectal cancer cells (colo-205)", "experiment": "Human subcutaneous xenograft model, colo-205, athymic nude mice", "format": "in vivo", "conditions": "oral gavage daily for 21 days", "method": "as §1, §2"}, "Solubility Assay": {"experiment": "Solubility Assay", "format": "physicochemical", "conditions": "aqueous buffer, thermodynamic from solid; pH 8 phosphate buffer, ambient temperature, at least 16 hours, target 2.0 mg/mL", "method": "The appropriate amounts of test compound are weighed into separate chromatographic vials. […] The vials are capped securely and placed in a rotation device. The vials are rotated through 360° for at least 16 hours at ambient temperature with an angular speed of about 50 rpm. A visual examination of the individual vials is performed after rotation. 250 μL from each vial is filtered through a 0.7 μm glass filter. The sample filtrate and standard filtrate are collected into separate wells of 96 deep well plates. […] The sample and standard solutions are analysed by HPLC (LC Column: […] A—0.2% Formic Acid in Water; B—0.2% Formic Acid in acetonitrile; […] Diode array detector scan from 200 nm to 400 nm. The wavelength extracted and used for quantitation is selected to provide the most accurate estimation of the sample preparations.) Retention time used for peak assignment for the test compound is obtained from the 200 μg/mL standard preparation chromatogram. Solubility values are calculated using a four-level calibration curve. The line of best fit for peak area of calibration standards calculated by chromatographic management data system using linear or quadratic through zero fit is used. Solubility results are reported in mg/mL. Preferred exemplified compounds display a solubility of at least 2 mg/ml in pH 8 phosphate buffer using the above assay."}, "[6]": {"tested_on": "human glioblastoma cells (U87MG)", "experiment": "Human subcutaneous xenograft model, U87MG, athymic nude mice", "format": "in vivo", "conditions": "U87 MG, oral gavage daily for 21 days", "method": "as §1, §2"}, "[7]": {"conditions": "Sprague Dawley, rat, brain, read-out: Brain concentration (Mean)"}, "[8]": {"conditions": "Sprague Dawley, rat, plasma, read-out: Plasma concentration (Mean)"}},
  "note": "Read-outs that look alike come from different tables or passages of the source.",
  "data": [
    {"smiles": "CCN1CCN(Cc2ccc(Nc3ncc(F)c(-c4cc(F)c5nc(C)n(C(C)C)c5c4)n3)nc2)CC1.CS(=O)(=O)O", "note": "[Example 16, [5-(4-Ethyl-piperazin-1-ylmethyl)-pyridin-2-yl]-[5-fluoro-4-(7-fluoro-3-isopropyl-2-methyl-3H-benzoimidazol-5-yl)-pyrimidin-2-yl]-amine methanesulfonate]", "values": [
      {"measurement": "median survival compared to vehicle treated animals", "setting": "[1]; 40 mpk qd, 80 mpk qd and 80 mpk q2d", "value": "statistically significant increase in median survival"},
      {"measurement": "Mean Survival", "setting": "[1]; PO 20 mg/kg qd", "value": 29.8, "unit": "days"},
      {"measurement": "Median Survival", "setting": "[1]; PO 20 mg/kg qd", "value": 31, "unit": "days"},
      {"measurement": "Mean Survival", "setting": "[1]; PO 40 mg/kg qd", "value": 34.3, "unit": "days"},
      {"measurement": "Median Survival", "setting": "[1]; PO 40 mg/kg qd", "value": 37, "unit": "days"},
      {"measurement": "Mean Survival", "setting": "[1]; PO 80 mg/kg q2d", "value": 33.0, "unit": "days"},
      {"measurement": "Median Survival", "setting": "[1]; PO 80 mg/kg q2d", "value": 34, "unit": "days"},
      {"measurement": "Mean Survival", "setting": "[1]; PO 80 mg/kg qd", "value": 36.9, "unit": "days"},
      {"measurement": "Median Survival", "setting": "[1]; PO 80 mg/kg qd", "value": 37, "unit": "days"},
      {"measurement": "tumour response", "setting": "[2]; AML MV4-11 xenografts, 100 mg per Kg (mpk)", "value": "tumour regression is observed"},
      {"measurement": "TGD Days (750 m3)", "setting": "[2]; MV4-11, 25 mpk", "value": 10.4, "unit": "days"},
      {"measurement": "TGD Days (750 m3)", "setting": "[2]; MV4-11, 50 mpk", "value": 11.5, "unit": "days"},
      {"measurement": "Tumor volume (mg) at start of dosing period (day 28)", "setting": "[2]; MV4-11, 100 mpk, PO, qdx21, day 28", "value": 225.94, "unit": "mg"},
      {"measurement": "Tumor volume (mg) at end of dosing period (day 49)", "setting": "[2]; MV4-11, 100 mpk, PO, qdx21, day 49", "value": 116.68, "unit": "mg"},
      {"measurement": "TGD Days (750 m3)", "setting": "[2]; MV4-11, 100 mpk", "value": 28.8, "unit": "days"},
      {"measurement": "TGD Days (750 m3)", "setting": "[3]; H460, 25 mpk", "value": 1.5, "unit": "days"},
      {"measurement": "TGD Days (750 m3)", "setting": "[3]; H460, 50 mpk", "value": 4.0, "unit": "days"},
      {"measurement": "TGD Days (750 m3)", "setting": "[3]; H460, 100 mpk", "value": 6.7, "unit": "days"},
      {"measurement": "concentration at 2 h", "setting": "[4]; [7]", "value": 758, "unit": "ng/g"},
      {"measurement": "concentration at 4 h", "setting": "[4]; [7]", "value": 1500, "unit": "ng/g"},
      {"measurement": "concentration at 24 h", "setting": "[4]; [7]", "value": 992, "unit": "ng/g"},
      {"measurement": "concentration at 48 h", "setting": "[4]; [7]", "value": 718, "unit": "ng/g"},
      {"measurement": "Cmax", "setting": "[4]; Sprague Dawley, rat, plasma, 30 mg/kg oral", "value": 1500, "unit": "ng/mL"},
      {"measurement": "concentration at 2 h", "setting": "[4]; [8]", "value": 1010, "unit": "ng/mL"},
      {"measurement": "concentration at 4 h", "setting": "[4]; [8]", "value": 1500, "unit": "ng/mL"},
      {"measurement": "concentration at 24 h", "setting": "[4]; [8]", "value": 1020, "unit": "ng/mL"},
      {"measurement": "concentration at 48 h", "setting": "[4]; [8]", "value": 972, "unit": "ng/mL"},
      {"measurement": "Tmax", "setting": "[4]; Sprague Dawley, rat, 30 mg/kg oral, plasma and brain, read-out: Maximal concentrations (Tmax)", "value": 4, "unit": "h"},
      {"measurement": "Cmax Brain", "setting": "[4]; 30 mg/kg oral", "value": 1500, "unit": "ng/g"},
      {"measurement": "Tmax Brain", "setting": "[4]; 30 mg/kg oral", "value": 4.00, "unit": "h"},
      {"measurement": "Tmax Plasma", "setting": "[4]; 30 mg/kg oral", "value": 4.00, "unit": "h"},
      {"measurement": "blood-brain barrier penetration", "setting": "[4]; 30 mg/kg oral", "value": "able to cross the blood-brain barrier and distributes well into the brain"},
      {"measurement": "AUC Brain", "setting": "[4]; 30 mg/kg oral, 0-48 Hours", "value": 47900, "unit": "ng·h/g"},
      {"measurement": "AUC Plasma", "setting": "[4]; 30 mg/kg oral, 0-48 Hours", "value": 52300, "unit": "ng·h/mL"},
      {"measurement": "Kp", "setting": "[4]; male, Sprague Dawley, rat, brain/plasma, po, 30 mg/kg, 30 mg/kg oral, 0-48 Hours, read-out: AUC Brain/Plasma Ratio", "value": 0.92},
      {"measurement": "Kp", "setting": "[4]; male, Sprague Dawley, rat, brain/plasma, po, 30 mg/kg, 30 mg/kg oral, by AUC or Cmax, read-out: brain/plasma ratio", "value": "~1"},
      {"measurement": "Kp at 4 h", "setting": "[4]; male, Sprague Dawley, rat, brain/plasma, po, 30 mg/kg, 30 mg/kg oral, read-out: Cmax Brain/Plasma Ratio", "value": 1},
      {"measurement": "TGD Days (750 m3)", "setting": "[5]; colo-205, 25 mpk", "value": 15.3, "unit": "days"},
      {"measurement": "TGD Days (750 m3)", "setting": "[5]; colo-205, 50 mpk", "value": 17.4, "unit": "days"},
      {"measurement": "TGD Days (750 m3)", "setting": "[5]; colo-205, 100 mpk", "value": 39.9, "unit": "days"},
      {"measurement": "solubility", "setting": "Solubility Assay", "value": 2100, "unit": "µg/mL"},
      {"measurement": "TGD Days (750 m3)", "setting": "[6]; 25 mpk", "value": 6.1, "unit": "days"},
      {"measurement": "TGD Days (750 m3)", "setting": "[6]; 50 mpk", "value": 10.0, "unit": "days"},
      {"measurement": "TGD Days (750 m3)", "setting": "[6]; 100 mpk", "value": 21.4, "unit": "days"}
    ]}
  ]
}
